US5348949A, “Method of preparing N-oxo-tetrahydro-β-carbolines” (Duphar International Research B.V., priority 1989, dated 1994)
≈ marks a conversion by molar mass, not a printed value. Entries after “also recorded” stand apart in the source; their conditions may differ. Where two headings read alike, the source gives them in different places.

Legend:
P 388 leukemia cells = assay: inhibition of P 388 leukemia cells colony formation (in vitro antitumour); assay type: cell-based; settings: for IC50: Mus musculus, P388, read-out: ID50
Protocol: The antitumour activity of some eudistomin derivatives and the references antitumour drug was assessed in an invitro test with high predictive power for in-vivo activity. In this assay the inhibition of P 388 leukemia cells colony formation was determined at several concentrations of the test compounds as described in reference 8. The activity is expressed as an ID50 value, which indicates the dose causing 50% inhibition with respect to untreated control cells.

[1] = test system: influenza virus A (Ishikawa); assay: microbe, parasite or virus in culture; assay type: cell-based; settings: unidentified influenza virus, read-out: MIC influenza virus A (Ishikawa)
[2] = test system: influenza virus B (Singapore); assay: microbe, parasite or virus in culture; assay type: cell-based; settings: unidentified influenza virus, read-out: MIC influenza virus B (Singapore)
[3] = test system: Respiratory syncytial virus (Lung); assay: inhibition of virus induced cytopathogenicity, Hela cells, respiratory syncytial virus (Lung); assay type: cell-based; settings: human respiratory syncytial virus
Protocol: (§1) Antiviral activity of some eudistomin derivatives was determined in a large number of in-vitro assays as described in reference 9. These tests are all based on the inhibition of virus induced cytopathogenicity. Depending upon the virus studied, different cell cultures were used. […] New compound 67 has the additional advantage of a 10-fold higher potency as compared with known compound 63.

Coxsackie virus B4 = assay: inhibition of virus induced cytopathogenicity, Hela cells, Coxsackie virus B4; assay type: cell-based; settings: Enterovirus B
Protocol: as §1

Polio virus = assay: microbe, parasite or virus in culture; assay type: cell-based; settings: read-out: MIC Polio virus
parainfluenza-3 virus = assay: inhibition of virus induced cytopathogenicity, Vero cells, parainfluenza-3 virus; assay type: cell-based
Protocol: as §1

Reovirus-1 = assay: inhibition of virus induced cytopathogenicity, Vero cells, Reovirus-1; assay type: cell-based
Protocol: as §1

Sindbis virus = assay: inhibition of virus induced cytopathogenicity, Vero cells, Sindbis virus; assay type: cell-based
Protocol: as §1

Coxsasckie virus B4 = assay: inhibition of virus induced cytopathogenicity, Vero cells, Coxsackie virus B4; assay type: cell-based; settings: Enterovirus B
Protocol: as §1

Semliki forest virus = assay: inhibition of virus induced cytopathogenicity, Vero cells, Semliki forest virus; assay type: cell-based
Protocol: as §1

[4] = test system: Herpes simplex virus-1 (F); assay type: cell-based; settings: Human alphaherpesvirus 1; PRK cells
Protocol: as §1

[5] = test system: Herpes simplex virus-1 (KOS); assay type: cell-based; settings: Human alphaherpesvirus 1; PRK cells
Protocol: as §1

[6] = test system: Herpes simplex virus-1 (McInyre); assay type: cell-based; settings: Human alphaherpesvirus 1; PRK cells
Protocol: as §1

[7] = test system: Herpes simplex virus-2 (196); assay type: cell-based; settings: Human alphaherpesvirus 2; PRK cells
Protocol: as §1

[8] = test system: Herpes simplex virus-2 (G); assay type: cell-based; settings: Human alphaherpesvirus 2; PRK cells
Protocol: as §1

[9] = test system: Herpes simplex virus-2 (Lyons); assay type: cell-based; settings: Human alphaherpesvirus 2; PRK cells
Protocol: as §1

Vaccinia virus = assay: microbe, parasite or virus in culture; assay type: cell-based; settings: Orthopoxvirus vaccinia, read-out: MIC Vaccinia virus
[10] = cytotoxicity in MDCK cell cultures; settings: dog
[11] = cytotoxicity in Hela cell cultures; settings: human, hela cells
[12] = cytotoxicity in Vero cell cultures; settings: monkey, vero cells
[13] = cytotoxicity in primary rabbit kidney (PRK) cell cultures; settings: primary rabbit kidney cells
in vitro [14] = settings: dog, mdck
in vitro [15] = settings: human, hela cells
in vitro [16] = settings: monkey, vero cells
in vitro [17] = settings: rabbit, primary rabbit kidney cells
22 antiviral test models = assay: 22 antiviral assays taken together (summary statements); assay type: cell-based
Protocol: as §1

[18] = test system: Vesicular stomatitis virus; assay: microbe, parasite or virus in culture; assay type: cell-based; settings: read-out: MIC Vesicular stomatitis virus
[19] = test system: Vesicular stomatitis virus; assay: microbe, parasite or virus in culture; assay type: cell-based; settings: read-out: MIC Vesicular stomatitis virus; remark: listed apart in the source

Row | Structure (SMILES) | MIC [1] [µg/mL] | MIC [2] [µg/mL] | MIC [3] [µg/mL] | MIC (Coxsackie virus B4) [µg/mL] | MIC (Polio virus) [µg/mL] | MIC (parainfluenza-3 virus) [µg/mL] | MIC (Reovirus-1) [µg/mL] | MIC (Sindbis virus) [µg/mL] | MIC (Coxsasckie virus B4) [µg/mL] | MIC (Semliki forest virus) [µg/mL] | MIC [4] [µg/mL] | MIC [5] [µg/mL] | MIC [6] [µg/mL] | MIC [7] [µg/mL] | MIC [8] [µg/mL] | MIC [9] [µg/mL] | MIC (Vaccinia virus) [µg/mL] | IC50 (P 388 leukemia cells) [µg/mL] | MCC (in vitro [14]) [µg/mL] | MCC (in vitro [15]) [µg/mL] | also measured
1 | c1ccc2c3c([nH]c2c1)C1CCSCON1CC3 (racemic) [Compound 50, (±)-Deamino, debromo Eudistomin L] | > 40 | > 40 | > 8 | > 10 | > 10 | > 10 | > 10 | > 10 | > 25 | > 25 | > 70 | > 70 | > 70 | > 70 | > 120 | > 70 | > 70 | – | – | – | ID50 (P 388 leukemia cells; dose causing 50% inhibition of colony formation vs untreated control cells): no activity at 1.0; MCC [10]: 80 µg/mL; MCC [11]: ≥ 30 µg/mL; MCC [12]: ≥ 40 µg/mL; MCC [13]: ≥ 120 µg/mL
2 | COc1cccc2c1C(=O)c1c(O)c3c(c(O)c1C2=O)C[C@@](O)(C(=O)CO)C[C@@H]3O[C@H]1C[C@H](N)[C@H](O)[C@H](C)O1 [adriamycin, reference compound] | – | – | – | – | – | – | – | – | – | – | – | – | – | – | – | – | – | 20 (≈ 36.8 µM) | – | – | –
3 | NC(=O)c1ncn([C@@H]2O[C@H](CO)[C@@H](O)[C@H]2O)n1 [Ribavirin, ribavirin, reference compound] | 15 (≈ 61.4 µM) | 15 (≈ 61.4 µM) | 3 (≈ 12.3 µM) | 70 (≈ 287 µM) | 110 (≈ 450 µM) | 135 (≈ 553 µM) | 125 (≈ 512 µM) | > 235 | > 300 | > 300 | > 200 | > 200 | > 200 | > 200 | > 200 | > 200 | 30 (≈ 123 µM) | – | > 200 | ≥ 400 | MCC (in vitro [16]): > 400 µg/mL; MCC (in vitro [17]): ≥ 400 µg/mL
4 | COc1ccc2[nH]c3c(c2c1)CCN1OCSCC(N)C31 [Compound 67, (1S,13bS)-5-methoxy Eudistomin L] | > 0.32 | > 0.32 | 0.15 (≈ 0.491 µM) | 0.045 (≈ 0.147 µM) | 0.045 (≈ 0.147 µM) | 0.55 (≈ 1.8 µM) | 0.045 (≈ 0.147 µM) | 0.045 (≈ 0.147 µM) | 0.07 (≈ 0.229 µM) | 0.11 (≈ 0.36 µM) | 0.039 (≈ 0.128 µM) | 0.045 (≈ 0.147 µM) | 0.013 (≈ 0.0426 µM) | 0.014 (≈ 0.0458 µM) | 0.012 (≈ 0.0393 µM) | 0.023 (≈ 0.0753 µM) | 0.012 (≈ 0.0393 µM) | 3.8 (≈ 12.4 µM) | 0.8 | 2 | spectrum of antiviral activity (22 antiviral test models): exceptionally wide range of activities; also recorded: very broad spectrum of antiviral activity; MCC (in vitro [16]): ≥ 1 µg/mL; MCC (in vitro [17]): ≥ 2.5 µg/mL
5 | N[C@@H]1CSCON2CCc3c([nH]c4ccccc34)[C@H]12 [Compound 63, (1S.13bS)-debromo Eudistomin L] | 0.8 (≈ 2.91 µM) | 0.8 (≈ 2.91 µM) | 0.8 (≈ 2.91 µM) | 0.55 (≈ 2 µM) | 0.7 (≈ 2.54 µM) | > 0.6 | 0.4 (≈ 1.45 µM) | 0.35 (≈ 1.27 µM) | 0.55 (≈ 2 µM) | 0.45 (≈ 1.63 µM) | 0.25 (≈ 0.908 µM) | 1.35 (≈ 4.9 µM) | 0.2 (≈ 0.726 µM) | 0.2 (≈ 0.726 µM) | 0.2 (≈ 0.726 µM) | 0.38 (≈ 1.38 µM) | 0.25 (≈ 0.908 µM) | 42 (≈ 153 µM) | 8 | ≥ 4 | MIC [18]: 0.2 µg/mL (≈ 0.726 µM); MIC [19]: 0.2 µg/mL (≈ 0.726 µM); spectrum of antiviral activity (22 antiviral test models): exceptionally wide range of activities; also recorded: very broad spectrum of antiviral activity; MCC (in vitro [16]): ≥ 4 µg/mL; MCC (in vitro [17]): ≥ 25 µg/mL
